Measured values from PMC8939339, “Mechanism of Cooperative Degradation of Gum Arabic Arabinogalactan Protein by Bifidobacterium longum Surface Enzymes” (Applied and Environmental Microbiology, 2022).

Target: T1, BlArafE (Bifidobacterium longum, UniProt A0ACD7UMY4)
T1 construct: gene BLLJ_1850; signal peptide (aa 1-26) and C-terminal TM region (aa 1637-1659) removed; printed insert 88 to 4899 (nucleotides); His-tag (printed both as C- and N-terminal; pET23b); E. coli BL21(DE3); 175 kDa
Assay: HPAEC-PAD of reaction products
Assay type: biochemical
Conditions: 50 mM sodium acetate pH 6.0, 37 °C, 16 h; both alpha1,3- and alpha1,4-Araf cleaved

T1 sequence (A0ACD7UMY4 30-1633): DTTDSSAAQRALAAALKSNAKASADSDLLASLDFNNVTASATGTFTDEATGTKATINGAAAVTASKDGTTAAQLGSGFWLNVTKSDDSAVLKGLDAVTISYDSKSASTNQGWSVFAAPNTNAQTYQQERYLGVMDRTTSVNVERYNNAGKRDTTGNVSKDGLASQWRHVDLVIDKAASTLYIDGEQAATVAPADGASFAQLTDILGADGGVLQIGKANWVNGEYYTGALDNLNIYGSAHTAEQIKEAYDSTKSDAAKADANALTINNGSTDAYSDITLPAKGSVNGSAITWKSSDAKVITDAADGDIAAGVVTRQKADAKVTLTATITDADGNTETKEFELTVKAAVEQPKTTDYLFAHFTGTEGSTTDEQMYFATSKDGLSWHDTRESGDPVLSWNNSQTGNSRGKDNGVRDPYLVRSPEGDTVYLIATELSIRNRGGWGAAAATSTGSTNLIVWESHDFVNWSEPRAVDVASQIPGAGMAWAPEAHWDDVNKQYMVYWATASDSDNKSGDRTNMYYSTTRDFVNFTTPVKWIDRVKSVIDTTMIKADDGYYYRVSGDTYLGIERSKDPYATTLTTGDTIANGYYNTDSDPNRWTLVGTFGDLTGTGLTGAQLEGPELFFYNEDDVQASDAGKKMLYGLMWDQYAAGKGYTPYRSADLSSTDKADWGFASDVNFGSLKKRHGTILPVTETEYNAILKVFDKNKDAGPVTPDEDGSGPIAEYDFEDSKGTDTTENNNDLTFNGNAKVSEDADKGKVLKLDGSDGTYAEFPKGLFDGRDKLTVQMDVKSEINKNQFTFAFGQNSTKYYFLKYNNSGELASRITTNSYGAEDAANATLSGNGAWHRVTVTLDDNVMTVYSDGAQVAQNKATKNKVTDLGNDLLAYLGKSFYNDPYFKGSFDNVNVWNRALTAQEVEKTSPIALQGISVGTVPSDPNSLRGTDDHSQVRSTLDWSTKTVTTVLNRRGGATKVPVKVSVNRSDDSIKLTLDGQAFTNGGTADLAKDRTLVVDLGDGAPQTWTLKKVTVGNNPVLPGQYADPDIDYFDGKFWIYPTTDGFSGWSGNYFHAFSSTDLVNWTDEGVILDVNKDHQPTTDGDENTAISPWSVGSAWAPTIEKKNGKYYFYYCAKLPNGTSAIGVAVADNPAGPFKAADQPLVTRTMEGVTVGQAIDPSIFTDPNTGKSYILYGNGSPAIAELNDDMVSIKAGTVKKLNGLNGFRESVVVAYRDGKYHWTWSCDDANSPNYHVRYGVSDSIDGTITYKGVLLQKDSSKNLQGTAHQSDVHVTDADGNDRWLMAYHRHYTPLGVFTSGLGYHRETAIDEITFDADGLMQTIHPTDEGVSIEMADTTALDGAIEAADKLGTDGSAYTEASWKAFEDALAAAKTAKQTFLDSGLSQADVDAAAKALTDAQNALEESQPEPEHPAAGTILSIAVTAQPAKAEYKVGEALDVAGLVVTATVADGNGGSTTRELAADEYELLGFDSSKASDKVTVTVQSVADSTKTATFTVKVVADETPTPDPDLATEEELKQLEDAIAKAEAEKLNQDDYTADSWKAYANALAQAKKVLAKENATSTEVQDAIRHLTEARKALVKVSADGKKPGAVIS

## C[C@@H]1O[C@@H](O[C@H]2[C@H](O)[C@@H](O)[C@H](OC[C@H]3O[C@@H](OC[C@H]4OC(O)[C@H](O)[C@@H](O)[C@H]4O)[C@H](O)[C@@H](OC4O[C@@H](CO)C(O)[C@H]4O)[C@H]3OC3O[C@@H](CO)C(O)[C@H]3O)O[C@@H]2C(=O)O)[C@H](O)[C@H](O)[C@H]1O (stereo partly shown) [S5-A]
  HPAEC-PAD of reaction products: BlArafE cleaved S5-A into S4 and L-arabinose
